System: rabbit platelets
Experiment: In vitro platelet aggregation (turbidimetry, platelet-rich plasma)
Type: cell-based
Details: for activity on this in vitro platelet aggregation test: result in words, concentration and aggregating agent not stated
Procedure: The platelet aggregation is measured by the turbidimetry method inspired by Born, by detecting the optical transmission through a platelet-rich plasma (PRP) to which and aggregating agent has been added. When the platelets aggregate, the plasma becomes clear and the optical transmission increases. Blood is taken (3 tubes per rabbit) by cardiac puncture from a rabbit into tubes containing sodium citrate. To obtain the platelet-rich plasma (PRP), the tubes are centrifuged at 160 g for 10 minutes. The supernatants are collected (PRP) and the pellet is re-centrifuged at 2000 g for 15 minutes to obtain the platelet-poor plasma (PPP). By dilution with the PPP, the PRP is adjusted to a concentration of 300,000 platelets per mm^3±10%. The counting is carried out using a Coulter ZM counter. Tubes containing 320 μl of PRP are incubated at +37° C. for 30 minutes in pre-incubation wells. The aggregometer is calibrated with the PPP for an optical transmission of 100% corresponding to a complete aggregation, and with the PRP obtained from the same rabbit for an optical transmission of 0% corresponding to the absence of aggregation. The test product P is added in a volume of 40 μl. After incubation for 2 minutes, the aggregating agent (10 μM ADP, 0.2 mM sodium arachidonate or collagen […]) is added in a volume of 40 μl. The aggregation begins immediately and can be seen on the printer. On the plot obtained, the height of the aggregation curve is measured in cm from the baseline before addition of the aggregating agent, and then converted into mVolts (=1/OD) using the formula 10 mV=2.5 cm.

Which inhibition at 50 µM (Oryctolagus cuniculus, Platelet, product concentration 5 × 10^−5 M, rabbit platelets, arachidonic acid 0.2 mM, read-out: % of inhibition of the aggregation induced by arachidonic acid) does the source give for CC(=O)Oc1ccccc1C(=O)O [Aspirin, reference compound] here?
Its inhibition at 50 µM is 85%.

And the inhibition at 100 µM (Oryctolagus cuniculus, Platelet, product concentration 10^−4 M, rabbit platelets, arachidonic acid 0.2 mM, read-out: % of inhibition of the aggregation induced by arachidonic acid)?
The inhibition at 100 µM was 100%.

What about the inhibition at 10 µM (Oryctolagus cuniculus, Platelet, product concentration 10^−5 M, rabbit platelets, arachidonic acid 0.2 mM, read-out: % of inhibition of the aggregation induced by arachidonic acid) of the same compound?
Its inhibition at 10 µM is 13%.

What about the inhibition at 1 µM (Oryctolagus cuniculus, Platelet, product concentration 10^−6 M, rabbit platelets, arachidonic acid 0.2 mM, read-out: % of inhibition of the aggregation induced by arachidonic acid) of the same compound?
The inhibition at 1 µM was 8%.

With CCC1OC(=O)C(C)C(=O)C(C)C(OC2OC(C)CC(N(C)C)C2O)C(C)(OC)CC(C)C(=O)C(C)C2N(CCCCn3cnc(-c4cccnc4)n3)C(=O)OC12C (centres unmarked) [Product P1] as the compound, how does the “activity on this in vitro platelet aggregation test” value (“activity on this” below) read?
The value was “good activity”.

For CCC1OC(=O)C(C)(F)C(=O)C(C)C(OC2OC(C)CC(N(C)C)C2O)C(C)(OC)CC(C)C(=O)C(C)C2N(CCCCn3cnc(-c4cccnc4)c3)C(=O)OC12C [Product P2, 11,12-dideoxy-3-de((2,6-dideoxy-3-C-methyl-3-O-methyl-alpha-L-ribohexopyranosyl)oxy)-2-fluoro-6-O-methyl-3-oxo-12,11-(oxycarbonyl((4-(4-(3-pyridyl)-1H-imidazol-1-yl)butyl)-imino))erythromycin], which “activity on this” value is on record?
Its value is “good activity”.

How did the “activity on this” value turn out when CCC1OC(=O)C(C)C(=O)C(C)C(OC2OC(C)CC(N(C)C)C2O)C(C)(OC)CC(C)C(=O)C(C)C2N(CCCCn3cnc(-c4cccnc4)c3)C(=O)OC12C [Product P3, 11,12-dideoxy-3-de((2,6-dideoxy-3-C-methyl-3-O-methyl-alpha-L-ribohexopyranosyl)oxy)-6-O-methyl-3-oxo-12,11-(oxycarbonyl((4-(4-(3-pyridyl)-1H-imidazol-1-yl)butyl)imino))erythromycin] was run?
Its value is “good activity”.

With CC[C@H]1OC(=O)[C@H](C)C(=O)[C@H](C)[C@@H](O[C@@H]2O[C@H](C)C[C@H](N(C)C)[C@H]2O)[C@](C)(OC)C[C@@H](C)C(=O)[C@H](C)[C@H]2N(COCCn3cnc(-c4cccnc4)c3)C(=O)O[C@]12C [Product P] as the compound, how does the “% of inhibition of the aggregation induced by arachidonic acid” value (from here on “% of inhibition … by arachidonic acid”) (product concentration 10^−4 M, rabbit platelets, arachidonic acid 0.2 mM) read?
Its value is 90%.

What about the “% of inhibition … by arachidonic acid” value (product concentration 10^−5 M, rabbit platelets, arachidonic acid 0.2 mM) of the same compound?
Its value is 73%.

What about the “% of inhibition … by arachidonic acid” value (product concentration 10^−6 M, rabbit platelets, arachidonic acid 0.2 mM) of the same compound?
Its value is 42%.

What about the “% of inhibition … by arachidonic acid” value (product concentration 10^−7 M, rabbit platelets, arachidonic acid 0.2 mM) of the same compound?
Its value is 7%.
